The values below come from patent US11712466B2, “Vaccine composition” (TOHOKU UNIVERSITY, priority 2017, dated 2023).

“Also recorded” adds a separate entry of the source. Ends that are not written are not given here.

For one test, the system named is mCD31. The experiment in a line: Gene expression in excised tumor tissue by real-time PCR, mCD31. The format is in vivo, mouse. The settings on record: 20 μg vaccine; tumor excised two weeks after implantation. The procedure: (§1) The mouse implanted with the tumor cells in Example 2 was sacrificed two weeks after implantation of the tumor cells, and a tumor was excised from the right axillary subcutaneous region. By using RNeasy Plus Kit (Qiagen, Inc.), extraction of the total RNA from the excised tumor and purification thereof were carried out. By using the obtained total RNA as a template, cDNA was synthesized by reverse transcription reaction. The cDNA was analyzed by performing real-time PCR using a mixed solution of the obtained cDNA and SYBR green (TAKARA BIO, Inc.).
In general terms: Real-time PCR tracks product formation cycle by cycle.

The subject of test [1] is mouse melanoma cells (B16F1). In words: Subcutaneous implant model, tumor growth inhibitory effect (B16F1). The class given is in vivo. The settings on record: immunized C57BL/6J mice, cells implanted s.c. on day 29, measured 14 days after implantation. The procedure:
After 2 weeks from the administration of each peptide vaccine and incomplete Freund's adjuvant in Example 1 (on day 29 after the initial peptide vaccine administration), mouse-derived tumor cells were implanted in an immunized mouse, whereby a subcutaneous implant model was prepared. Specifically, mouse lung cancer cells (Lewis lung cancer cells (LLC)) or mouse melanoma cells (B16F1) (all have C57BL/6J as a genetic background) cultured in a RPMI+10% FBS medium were collected by centrifugation, and a cell suspension (1.0×10^8 cells/mL) was prepared with a serum-free medium, and 0.1 mL (1.0×10^7 cells/animal) of the cell suspension was implanted in a right axillary subcutaneous region of a mouse using a 27G injection needle and a syringe, whereby a subcutaneous implant model of tumor cells was prepared.

A further test has as its system mZeb1. The experiment in a line: Gene expression in excised tumor tissue by real-time PCR, mZeb1. The format is in vivo, mouse. The note with it: tumor excised two weeks after implantation. On the procedure: as §1
In the next test the test system is K5 cells. The experiment in a line: Tumor growth inhibitory effect, subcutaneous implant model of K5 cells. The class given is in vivo, mouse. On the procedure:
100 μg of KLH (control) or 100 μg of the MTG peptide vaccine was prepared with physiological saline so that the total amount was 100 &L, respectively, whereby KLH-mixed solutions were obtained. To each of the KLH-mixed solutions (100 μL), an equal amount of Alhydrogel (registered trademark) was added. The obtained mixture (200 μL) was intradermally (ID) administered to C57BL/6Jx129SVJ mice aged 8 weeks, whereby initial immunization was carried out (0 day). After 2 weeks from the administration (14 days), booster immunization was carried out. Further, after 2 weeks from the booster immunization (28 days), K5 cells were implanted in each of the mice, whereby a subcutaneous implant model was prepared. In order to confirm that an anti-VASH2 antibody was induced in the mice, the blood was collected at 0 day, 14 day, and 28 day, and the antibody titer was confirmed by ELISA (FIG. 15).

A further test relates to mSnail. The experiment in a line: Gene expression in excised tumor tissue by real-time PCR, mSnail. The format is in vivo, mouse. The settings on record: tumor excised two weeks after implantation. On the procedure: as §1
For test [2], the system named is mouse lung cancer cells (LLC). The experiment in a line: Metastasis inhibitory effect in vivo, LLC injected through tail vein, lung metastatic lesion. The settings on record: 20 or 100 μg, day 21 after LLC injection. On the procedure: 20 μg or 100 μg of KLH (control) and 20 μg or 100 μg of the peptide represented by SEQ ID NO: 4 conjugated with KLH (MTG peptide vaccine) were prepared with physiological saline so that the total amount was 100 μL, respectively, whereby KLH-mixed solutions were obtained. To each of the KLH-mixed solutions (100 μL), an equal amount of complete Freund's adjuvant or Alhydrogel (registered trademark) (Invitrogen) was added. The obtained mixture (200 μL) was intradermally (ID) administered to C57BL/6J male mice (n=5) aged 8 weeks, whereby initial immunization was carried out (0 day). Incidentally, in the intradermal administration, 200 μL was administered at a dose of 100 μL each to two sites. After 2 weeks from the administration (14 days), booster immunization was carried out by subcutaneously administering a mixture of each of the KLH-mixed solutions (100 μL) and an equal amount of incomplete Freund's adjuvant or Alhydrogel (registered trademark) to the mice. […] Further, at that time point, the blood was collected from each mouse, and the antibody titer of an antibody specific to the VASH2 protein was measured by ELISA. The mice were sacrificed on day 21 after the injection of LLC (49 days), and the lung metastatic lesion was analyzed (FIG. 7). […]

A further test concerns Lewis lung cancer cells. In words: In vitro wound migration method with serum of immunized mouse (LLC). The format is cell-based. The settings on record: 1% serum of mouse with increased anti-VASH2 titer after vaccine; 24 and 48 hours. On the procedure:
By using the serum derived from a mouse in which an increase in the antibody titer against the recombinant human VASH2 protein by administration of the MTG peptide vaccine was confirmed, the effect on the migration ability of various types of cancer cells was examined by an in vitro wound migration method. Mouse-derived Lewis lung cancer cells and human-derived RH30 rhabdomyosarcoma cells were added to a 6-well plate at 1.0×10^6 cells each. After 24 hours, a formed cell monolayer was wounded and linearly exfoliated. After the exfoliation, the medium was replaced with fresh 0.5% FBS+RPMI medium supplemented with 1% mouse serum. At 24 hours and 48 hours after the medium replacement, the image of the cell monolayer was captured using an IX71 inverted microscope (manufactured by Olympus Corporation), and a cell migration distance of each time zone was analyzed using ImageJ software. The analysis was carried out according to the following formula. Cell migration distance (%)={(A−B)/A}×100
A: Width of initial wound, B: Width of wound after 24 hours or 48 hours

For the substance “MTG peptide vaccine: MTG peptide MTGSAADTHR (SEQ ID NO: 4) conjugated with KLH as carrier by a glutaraldehyde method (also: conjugated with KLH by glutaraldehyde)”, the “expression of mCD31 (angiogenesis marker) in tumor tissue” value in the test with mCD31 was “expression of mCD31 was inhibited; also recorded: a tendency to inhibit the expression”. Moreover, in test [1], the “tumor size (tumorigenesis), B16F1 melanoma cells” value is recorded as “marked inhibition of tumorigenesis; also recorded: marked inhibition of tumor growth”. Also, the “expression of mZeb1 (epithelial-mesenchymal transition marker) in tumor tissue” value in the test on mZeb1 is recorded as “dose-dependent expression inhibitory effect; also recorded: significantly inhibited depending on the dose”. For the same substance, in the test on K5 cells (C57BL/6Jx129SVJ mice n=2, 100 μg, 14 to 40 days after implantation), the “tumor size (tumorigenesis), K5 cells, Experiment 1” value was “significant inhibition of tumorigenesis”. Besides, in the test on K5 cells (C57BL/6Jx129SVJ mice n=11, 100 μg, day 15 after implantation, vs KLH p=0.0002), the “tumor size (tumorigenesis), K5 cells, Experiment 2” value is “tumorigenesis was significantly inhibited”. In addition, in the test on mSnail, the “expression of mSnail (epithelial-mesenchymal transition marker) in tumor tissue” value was “dose-dependent expression inhibitory effect; also recorded: significantly inhibited depending on the dose”. Further, the “metastasis of cancer cells (lung metastatic lesion), LLC” value in test [2] (Alhydrogel adjuvant) and in test [2] (Freund's adjuvant) was “inhibited metastasis of cancer cells” in each case. The “cell migration, mouse-derived Lewis lung cancer cells” value in the test on Lewis lung cancer cells is given as “migration inhibitory effect”.
